Experimental data as given in patent US11477982B2, “2-amino-5-oxyalkyl-pyrimidine derivatives and their use for controlling undesired plant growth” (Bayer CropScience Aktiengesellschaft, priority 2017, dated 2022).

What was measured:
Type in all cases: in vivo
AVEFA: Avena fatua = assay: Pre-emergence herbicidal effect; conditions: dosage 320 g/ha
Excerpt: (§1) 1. Pre-Emergence Herbicidal Effect and Crop Plant Compatibility
(§2) Seeds of monocotyledonous and dicotyledonous weed plants and crop plants are placed in plastic or wood fiber pots and covered with soil. The compounds of the invention, formulated in the form of wettable powders (WP) or as emulsion concentrates (EC), are then applied onto the surface of the covering soil as aqueous suspension or emulsion with addition of 0.5% additive at a water application rate of 600 l/ha (converted).
(§3) After the treatment, the pots are placed in a greenhouse and kept under good growth conditions for the trial plants. After about 3 weeks, the effect of the preparations is scored visually in comparison with untreated controls as percentages. For example, 100% activity=the plants have died, 0% activity=like control plants.

STEME: Stellaria media [1] = assay: Pre-emergence herbicidal effect; conditions: pre-emergence; dosage 320 g/ha
Excerpt: as §1, §2, §3

[2] = tested on: ECHCG: Echinochloa crus-galli; assay: Pre-emergence herbicidal effect; conditions: pre-emergence; dosage 320 g/ha
Excerpt: as §1, §2, §3

[3] = tested on: MATIN: Matricaria inodora; assay: Pre-emergence herbicidal effect; conditions: pre-emergence; dosage 320 g/ha
Excerpt: as §1, §2, §3

HORMU: Hordeum murinum = assay: Pre-emergence herbicidal effect; conditions: pre-emergence; dosage 320 g/ha
Excerpt: as §1, §2, §3

LOLRI: Lolium rigidum = assay: Pre-emergence herbicidal effect; conditions: dosage 320 g/ha
Excerpt: as §1, §2, §3

SETVI: Setaria viridis [4] = assay: Pre-emergence herbicidal effect; conditions: pre-emergence; dosage 320 g/ha
Excerpt: as §1, §2, §3

VIOTR: Viola tricolor [5] = assay: Pre-emergence herbicidal effect; conditions: dosage 320 g/ha
Excerpt: as §1, §2, §3

VERPE: Veronica persica [6] = assay: Pre-emergence herbicidal effect; conditions: dosage 320 g/ha
Excerpt: as §1, §2, §3

[7] = tested on: ALOMY: Alopecurus myosuroides; assay: Pre-emergence herbicidal effect; conditions: pre-emergence; dosage 320 g/ha
Excerpt: as §1, §2, §3

[8] = tested on: AMARE: Amaranthus retroflexus; assay: Pre-emergence herbicidal effect; conditions: pre-emergence; dosage 320 g/ha
Excerpt: as §1, §2, §3

[9] = tested on: ABUTH: Abutilon theophrasti; assay: Pre-emergence herbicidal effect; conditions: dosage 320 g/ha
Excerpt: as §1, §2, §3

PHBPU: Ipomoea purpurea = assay: Pre-emergence herbicidal effect; conditions: dosage 320 g/ha
Excerpt: as §1, §2, §3

[10] = tested on: POLCO: Polygonum convolvulus; assay: Pre-emergence herbicidal effect; conditions: dosage 320 g/ha
Excerpt: as §1, §2, §3

STEME: Stellaria media [11] = assay: Post-emergence herbicidal effect; conditions: dosage 320 g/ha
Procedure: (§4) 2. Post-Emergence Herbicidal Effect and Crop Plant Compatibility
(§5) Seeds of monocotyledonous and dicotyledonous weeds and crop plants are placed in sandy loam in plastic or wood-fiber pots, covered with soil and cultivated in a greenhouse under controlled growth conditions, 2 to 3 weeks after sowing, the test plants are treated at the one-leaf stage. The compounds of the invention, formulated in the form of wettable powders (WP) or as emulsion concentrates (EC), are then sprayed onto the green parts of the plants as aqueous suspension or emulsion with addition of 0.5% additive at a water application rate of 600 l/ha (converted). After the test plants had been kept in the greenhouse under optimum growth conditions for about 3 weeks, the activity of the preparations is rated visually in comparison to untreated controls. For example, 100% activity=the plants have died, 0% activity=like control plants.

[12] = tested on: ECHCG: Echinochloa crus-galli; assay: Post-emergence herbicidal effect; conditions: dosage 320 g/ha
Procedure: as §4, §5

SETVI: Setaria viridis [13] = assay: Post-emergence herbicidal effect; conditions: dosage 320 g/ha
Procedure: as §4, §5

VIOTR: Viola tricolor [14] = assay: Post-emergence herbicidal effect; conditions: dosage 320 g/ha
Procedure: as §4, §5

VERPE: Veronica persica [15] = assay: Post-emergence herbicidal effect; conditions: dosage 320 g/ha
Procedure: as §4, §5

[16] = tested on: AMARE: Amaranthus retroflexus; assay: Post-emergence herbicidal effect; conditions: dosage 320 g/ha
Procedure: as §4, §5

[17] = tested on: ABUTH: Abutilon theophrasti; assay: Post-emergence herbicidal effect; conditions: dosage 320 g/ha
Procedure: as §4, §5

Row | SMILES | Herbicidal action against AVEFA (AVEFA: Avena fatua) [%] | Herbicidal action against STEME (STEME: Stellaria media [1]) [%] | Herbicidal action against ECHCG [2] [%] | Herbicidal action against MATIN [3] [%] | Herbicidal action against HORMU (HORMU: Hordeum murinum) [%] | Herbicidal action against LOLRI (LOLRI: Lolium rigidum) [%] | Herbicidal action against SETVI (SETVI: Setaria viridis [4]) [%] | Herbicidal action against VIOTR (VIOTR: Viola tricolor [5]) [%] | Herbicidal action against VERPE (VERPE: Veronica persica [6]) [%] | Herbicidal action against ALOMY [7] [%] | Herbicidal action against AMARE [8] [%] | Herbicidal action against ABUTH [9] [%] | Herbicidal action against PHBPU (PHBPU: Ipomoea purpurea) [%] | Herbicidal action against POLCO [10] [%] | Herbicidal action against STEME (STEME: Stellaria media [11]) [%] | Herbicidal action against ECHCG [12] [%] | Herbicidal action against SETVI (SETVI: Setaria viridis [13]) [%] | Herbicidal action against VIOTR (VIOTR: Viola tricolor [14]) [%] | Herbicidal action against AMARE [16] [%] | Herbicidal action against ABUTH [17] [%] | further results
1 | CC1Cc2ccccc2C1Nc1ncc(C(C)(C)O)cn1 (mixture of isomers) [Example 1.55] | 100 | 100 | 100 | 100 | 100 | 100 | 100 | 100 | 100 | 90 | 100 | 100 | 90 | 100 | 90 | 100 | 100 | 90 | 90 | 90 | Herbicidal action against VERPE (VERPE: Veronica persica [15]): 90%
2 | Cc1ccc2c(c1)[C@H](Nc1ncc(C(C)O)c(C)n1)CC2 (stereo partly drawn) [Example 1.13] | 100 | 100 | 100 | 100 | 100 | 100 | 100 | 100 | 100 | 100 | 100 | 100 | 100 | 100 | 90 | 100 |  |  | 90 | 80 | 
3 | Cc1ccc2c(c1)[C@H](Nc1ncc(C(C)(C)O)cn1)CCO2 [Example 1.38] |  |  |  | 100 |  |  |  | 100 | 100 |  | 100 |  |  | 100 | 100 | 100 | 90 | 90 | 100 | 90 | Herbicidal action against VERPE (VERPE: Veronica persica [15]): 90%
4 | Cc1ccc2c(c1)[C@H](Nc1ncc(C(C)(O)C3CC3)cn1)[C@@H](C)C2 (stereo partly drawn) [Example 1.20] | 100 | 100 | 100 | 100 | 100 | 100 | 100 | 100 | 100 | 100 | 100 | 100 | 100 | 100 | 100 | 100 |  |  | 90 | 90 | 
5 | Cc1ccc2c(c1)[C@H](Nc1ncc(C(C)(O)C3(C)CC3)cn1)[C@@H](C)C2 (stereo partly drawn) [Example 1.61] | 80 | 100 | 100 | 100 | 100 | 100 | 100 | 100 | 100 | 100 | 100 | 100 | 90 | 100 | 90 | 100 |  |  | 90 | 90 | 
6 | CC(C)(O)c1cnc(N[C@@H]2CCc3ccccc32)nc1 [Example 1.30] |  |  |  | 100 |  |  |  | 100 | 100 |  | 100 |  |  | 100 | 100 | 100 | 90 | 90 | 100 | 90 | Herbicidal action against VERPE (VERPE: Veronica persica [15]): 80%
7 | CCC(O)(c1cnc(N[C@H]2c3cc(C)ccc3C[C@@H]2C)nc1)C(F)(F)F (stereo partly drawn) [Example 1.58] |  |  |  | 100 |  |  |  | 100 | 100 |  | 100 |  |  | 100 | 90 | 100 | 90 | 90 | 90 | 90 | Herbicidal action against VERPE (VERPE: Veronica persica [15]): 90%
8 | Cc1ccc2c(c1)[C@H](Nc1ncc(C(C)(C)O)c(C(F)F)n1)[C@@H](C)C2 [Example 1.17] | 100 | 100 | 100 | 100 | 100 | 100 | 100 | 100 | 100 | 100 | 100 | 100 | 80 | 100 | 100 | 80 |  |  | 80 | 90 | 
